Tests used:
hENPP2 [1] = target: T1, hENPP2 (UniProtKB/SwissProt Q13822) (Homo sapiens (Human), UniProt Q13822); experiment: hENPP2 biochemical assay, LPC as substrate; conditions: LPC (palmitoyl 16:0) as substrate
Method in brief: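 Human ENPP2 in 50 mM Tris-HCl pH 8.5, 500 mM NaCl, 5 mM KCl, 10 mM CaCl2, 0.1% fatty-acid-free BSA, reacted 30 min at 37 °C with LPC 16:0 (150 µM solution added 1:1). Released choline measured via choline oxidase/peroxidase/TOOS/4-aminoantipyrine quinoneimine dye at 555 nm; IC50 reported.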

LPA 18:2 in rat plasma = experiment: Rat whole blood (plasma) LPA assay; format: biochemical; conditions: 2 h at 37 C, LPA 18:2 by LC-MS/MS
Protocol: Whole blood is collected from rats or mouse by exsanguinations on sodium heparin tube, then after centrifugation at 3000 rpm for 15 min at 4° C., plasma is stored at −80° C. Compounds are diluted in DMSO in concentration dependent manner then 0.5 μL are dispensed into 96-well plate placed in ice. Plasma is defrosted on ice then 49.5 μL of plasma are added into the well containing 0.5 μL of compound (1% DMSO final). Plates are covered with a lid in polypropylene and incubated at +37° C., 5% CO2, for 2 h under gentle shaking (except controls which are stored at −20° C.).
At the end of the incubation, controls are defrosted in ice and transferred in the incubated plates for LC-MS/MS analysis with a non GLP-validated method. For the analysis, plasma proteins from a 10 μL incubated plates are precipitated with an excess of methanol containing the internal standard, LPA 17:0. After centrifugation, the corresponding supernatant is injected on a C18 column. Analytes are eluted out of the column under isocratic conditions. An API5500 QTRAP mass spectrometer (ABSciex™) is used for the detection of LPA 18:2. No calibration curve is prepared for LPA 18:2, however relative quantities are evaluated based on the peak area.

hENPP2 [2] = target: T1, hENPP2; experiment: fluorescent hENPP2 biochemical assay, FS-3 as substrate; conditions: read-out: FS3-IC50
Method in brief: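 IC50 values come from fluorescence gained as FS-3 is hydrolysed (ex 485, em 520 nm). The reaction, started by adding 0.75 μM FS-3 solution, runs 30 min at 30° C after a 30 min room-temperature preincubation of compound with enzyme. Buffer: Tris-HCl pH 8.0 with NaCl, KCl, MgCl2, CaCl2 and 0.1% BSA.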

| Structure (SMILES) | IC50 (hENPP2 [1]) | IC50 (LPA 18:2 in rat plasma) | IC50 (hENPP2 [2]) |
| --- | --- | --- | --- |
| CCc1nc2ccc(C3CCN(CC(=O)N4CC(O)C4)CC3)cn2c1N(C)c1nc(-c2ccc(F)cc2)c(C(=O)C(F)(F)F)s1 [Compound 159, 1-(2-((2-ethyl-6-(1-(2-(3-hydroxyazetidin-1-yl)-2-oxoethyl)piperidin-4-yl)imidazo[1,2-a]pyridin-3-yl)(methyl)amino)-4-(4-fluorophenyl)thiazol-5-yl)-2,2,2-trifluoroethanone] | 0.01 to 100 nM | 100 to 500 nM | 0.01 to 100 nM |
| CCc1nc2ccc(C3=CCN(S(=O)(=O)CCCO)CC3)cn2c1N(C)c1nc(-c2ccc(F)cc2)cs1 [Compound 75, 3-(4-(2-ethyl-3-((4-(4-fluorophenyl)thiazol-2-yl)(methyl)amino)imidazo[1,2-a]pyridin-6-yl)-5,6-dihydropyridin-1(2H)-ylsulfonyl)propan-1-ol] | 500 to 1000 nM | > 1000 nM | 0.01 to 100 nM |
| CCc1nc2ccc(C3CCN(CC(=O)N4CC(O)C4)CC3)cn2c1N(C)c1nc(-c2ccc(F)cc2C#N)cs1 [Compound 170, 2-(2-((2-ethyl-6-(1-(2-(3-hydroxyazetidin-1-yl)-2-oxoethyl)piperidin-4-yl)imidazo[1,2-a]pyridin-3-yl)(methyl)amino)thiazol-4-yl)-5-fluorobenzonitrile] | 0.01 to 100 nM | 100 to 500 nM | 0.01 to 100 nM |
| CCc1nc2ccc(C3CCN(CC(=O)N(C)C)CC3)cn2c1N(C)c1nc(-c2ccc(F)cc2)c(C#N)s1 [Compound 145, 2-(4-(3-((5-cyano-4-(4-fluorophenyl)thiazol-2-yl)(methyl)amino)-2-ethylimidazo[1,2-a]pyridin-6-yl)piperidin-1-yl)-N,N-dimethylacetamide] | 0.01 to 100 nM | 0.01 to 100 nM | 0.01 to 100 nM |
| CCc1nc2ccc(C3CCN(S(C)(=O)=O)CC3)cn2c1N(C)c1nc(-c2ccc(F)cc2C)cs1 [Compound 98, N-(2-ethyl-6-(1-(methylsulfonyl)piperidin-4-yl)imidazo[1,2-a]pyridin-3-yl)-4-(4-fluoro-2-methylphenyl)-N-methylthiazol-2-amine] | 500 to 1000 nM | 100 to 500 nM | 0.01 to 100 nM |
| CCc1nc2ccc(N3CCN(CC(=O)N(C)C)CC3)cn2c1N(C)c1nc(-c2ccc(F)cc2)c(C#N)s1 [Compound 140, 2-(4-(3-((5-cyano-4-(4-fluorophenyl)thiazol-2-yl)(methyl)amino)-2-ethylimidazo[1,2-a]pyridin-6-yl)piperazin-1-yl)-N,N-dimethylacetamide] | 0.01 to 100 nM | 0.01 to 100 nM |  |
| CCc1nc2ccc(N3CCN(CCO)CC3)cn2c1N(C)c1nc(-c2ccc(Cl)cc2)cs1 [Compound 212, 2-(4-(3-((4-(4-chlorophenyl)thiazol-2-yl)(methyl)amino)-2-ethylimidazo[1,2-a]pyridin-6-yl)piperazin-1-yl)ethanol] | > 1000 nM | > 1000 nM | 0.01 to 100 nM |
| CCc1nc2ccc(C3CCN(S(C)(=O)=O)CC3)cn2c1N(C)c1nc(-c2ccc(F)cc2)c(CO)s1 [Compound 147, (2-((2-ethyl-6-(1-(methylsulfonyl)piperidin-4-yl)imidazo[1,2-a]pyridin-3-yl)(methyl)amino)-4-(4-fluorophenyl)thiazol-5-yl)methanol] | 100 to 500 nM | 100 to 500 nM | 0.01 to 100 nM |
| CCc1nc2ccc(C3CCN(CC(=O)N4CC(O)C4)CC3)cn2c1N(C)c1nc(-c2ccc(F)cc2)c(C#N)s1 [Compound 141, 2-((2-ethyl-6-(1-(2-(3-hydroxyazetidin-1-yl)-2-oxoethyl)piperidin-4-yl)imidazo[1,2-a]pyridin-3-yl)(methyl)amino)-4-(4-fluorophenyl)thiazole-5-carbonitrile] | 0.01 to 100 nM | 0.01 to 100 nM | 0.01 to 100 nM |
| CCC(=O)N1CCC(c2ccc3nc(CC)c(N(C)c4nc(-c5ccc(F)cc5)c(CO)s4)n3c2)CC1 [Compound 154, 1-(4-(2-ethyl-3-((4-(4-fluorophenyl)-5-(hydroxymethyl)thiazol-2-yl)(methyl)amino)imidazo[1,2-a]pyridin-6-yl)piperidin-1-yl)propan-1-one] | 100 to 500 nM | 500 to 1000 nM |  |
| CCc1nc2ccc(N3CCN(C(=O)C4CCN(C(C)=O)C4)CC3)cn2c1N(C)c1nc(-c2ccc(F)cc2)cs1 (stereo not shown) [Compound 48, 1-{3-[4-(2-Ethyl-3-{[4-(4-fluoro-phenyl)-thiazol-2-yl]-methyl-amino}-imidazo[1,2-a]pyridin-6-yl)-piperazine-1-carbonyl]-pyrrolidin-1-yl}-ethanone] | > 1000 nM | > 1000 nM |  |
| CCc1nc2ccc(C3CCN(S(=O)(=O)CCCN(C)C)CC3)cn2c1N(C)c1nc(-c2ccc(F)cc2)c(CO)s1 [Compound 149, (2-((6-(1-(3-(dimethylamino)propyl-sulfonyl)piperidin-4-yl)-2-ethylimidazo[1,2-a]pyridin-3-yl)(methyl)amino)-4-(4-fluorophenyl)thiazol-5-yl)] | 100 to 500 nM | > 1000 nM |  |
| CCc1nc2ccc(C3=CCN(S(C)(=O)=O)CC3)cn2c1N(C)c1nc(-c2ccc(OC(F)(F)F)cc2)cs1 [Compound 72, N-(2-ethyl-6-(1-(methylsulfonyl)-1,2,3,6-tetrahydropyridin-4-yl)imidazo[1,2-a]pyridin-3-yl)-N-methyl-4-(4-(trifluoromethoxy)phenyl)thiazol-2-amine] | 100 to 500 nM | > 1000 nM |  |
| CN(c1nc(-c2ccc(F)cc2)c(CO)s1)c1c(CCC#N)nc2ccc(C3CCN(S(C)(=O)=O)CC3)cn12 [Compound 175, 3-(3-((4-(4-fluorophenyl)-5-(hydroxymethyl)thiazol-2-yl)(methyl)amino)-6-(1-(methylsulfonyl)piperidin-4-yl)imidazo[1,2-a]pyridin-2-yl)propanenitrile] | 500 to 1000 nM | 100 to 500 nM |  |
| CCc1nc2ccc(N3CCN(CC(=O)N4CC[C@@H](O)C4)CC3)cn2c1N(C)c1nc(-c2ccc(F)cc2)cs1 [Compound 26, (R)-2-(4-(2-ethyl-3-((4-(4-fluorophenyl)thiazol-2-yl)(methyl)amino)imidazo[1,2-a]pyridin-6-yl)piperazin-1-yl)-1-(3-hydroxypyrrolidin-1-yl)ethanone] | 100 to 500 nM | > 1000 nM |  |
| CCc1nc2c(F)cc(N3CCN(CC(=O)N4CC[C@@H](O)C4)CC3)cn2c1N(C)c1nc(-c2ccc(F)cc2)cs1 [Compound 16, (R)-2-(4-(2-ethyl-8-fluoro-3-((4-(4-fluorophenyl)thiazol-2-yl)(methyl)amino)imidazo[1,2-a]pyridin-6-yl)piperazin-1-yl)-1-(3-hydroxypyrrolidin-1-yl)ethanone] |  | 500 to 1000 nM |  |
| CCc1nc2c(F)cc(N3CCN(CC(=O)N4CC(O)C4)CC3)cn2c1N(C)c1nc(-c2ccc(F)cc2)cs1 [Compound 14, 2-(4-(2-ethyl-8-fluoro-3-((4-(4-fluorophenyl)thiazol-2-yl)(methyl)amino)imidazo[1,2-a]pyridin-6-yl)piperazin-1-yl)-1-(3-hydroxyazetidin-1-yl)ethanone] |  | 0.01 to 100 nM |  |
| CCc1nc2c(C)cc(C3CCN(CC(=O)N4CC(O)C4)CC3)cn2c1N(C)c1nc(-c2ccc(F)cc2)c(C#N)s1 [Compound 10, 2-((2-ethyl-6-(1-(2-(3-hydroxyazetidin-1-yl)-2-oxoethyl)piperidin-4-yl)-8-methylimidazo[1,2-a]pyridin-3-yl)(methyl)amino)-4-(4-fluorophenyl)thiazole-5-carbonitrile] |  | 100 to 500 nM |  |
| CCc1nc2ccc(C3CCN(CC(=O)N4CC[C@@H](O)C4)CC3)cn2c1N(C)c1nc(-c2ccc(F)cc2)c(C#N)s1 [Compound 142, (R)-2-((2-ethyl-6-(1-(2-(3-hydroxypyrrolidin-1-yl)-2-oxoethyl)piperidin-4-yl)imidazo[1,2-a]pyridin-3-yl)(methyl)amino)-4-(4-fluorophenyl)thiazole-5-carbonitrile] | 0.01 to 100 nM | 0.01 to 100 nM |  |
| CCc1nc2cc(F)c(N3CCN(CC(=O)N4CC(O)C4)CC3)cn2c1N(C)c1nc(-c2ccc(F)cc2)cs1 [Compound 19, 2-[4-(2-Ethyl-7-fluoro-3-{[4-(4-fluoro-phenyl)-thiazol-2-yl]-methyl-amino}-imidazo[1,2-a]pyridin-6-yl)-piperazin-1-yl]-1-(3-hydroxy-azetidin-1-yl)-ethanone] |  | > 1000 nM |  |
| CCc1nc2ccc(C3CCN(CC(=O)N4CC(CO)C4)CC3)cn2c1N(C)c1nc(-c2ccc(F)cc2)c(C#N)s1 [Compound 144, 2-((2-ethyl-6-(1-(2-(3-(hydroxymethyl)azetidin-1-yl)-2-oxoethyl)piperidin-4-yl)imidazo[1,2-a]pyridin-3-yl)(methyl)amino)-4-(4-fluorophenyl)thiazole-5-carbonitrile] | 0.01 to 100 nM | 0.01 to 100 nM |  |
